Laboratory results as given in article PMC9905731, “PIN1 and PIN4 inhibition via parvulin impeders Juglone, PiB, ATRA, 6,7,4′-THIF, KPT6566, and EGCG thwarted hepatitis B virus replication” (Frontiers in Microbiology, 2023).

Columns and labels:
[1] = test system: HBV-infected HepG2-hNTCP-C9 cells; assay: HBV replication in HBV-infected HepG2-hNTCP-C9 cells; type: cell-based, hepatitis B virus; conditions: 9 days; 20 μM Juglone or PiB, 30 μM ATRA, 6,7,4′-THIF or KPT6566, 40 μM EGCG; vs solvent
Method: Figure 9 PIN1 and PIN4 Inhibition via Juglone, PiB, ATRA, 6,7,4′-THIF, KPT6566, and EGCG abrogate HBV replication in HBV-infected cells. […] HepG2-hNTCP-C9 cells were seeded and infected, as described previously, in the “Material and Methods” section. Infected cells (lanes 2–3) were treated with solvent (lane 2) or 20 μM Juglone, 20 μM PiB, 30 μM ATRA, 30 μM 6,7,4′-THIF, 30 μM KPT6566, 40 μM EGCG (lane 3) for 9 days, and lysates were subjected to SDS-PAGE and immunoblotting, NAGE, Northern blotting, and Southern blotting. The shown data are representation from three independent experiments. The statistical significance was determined by using Student’s t-test. *p < 0.05, **p < 0.005, ***p < 0.0005 relative to the corresponding control.
HBV inoculum was harvested from HepAD38 cells for infection experiments. HepAD38 cells in DMEM plus 10% FBS, 1% PS, G418 (0.5 mg/ml), insulin (5 μg/ml), and hydrocortisone hemisuccinate (50 μM) were grown, and on every third day after passage of day 10th (till 31st), the media supernatants were collected and concentrated via 20 to 60% sucrose gradient by ultra-centrifugation (Beckman Coulter Optima L-90 K) method, as described previously ([Saeed et al., 2019], [2021]). The HBV DNAs from the pelleted precipitant were examined by Southern blotting. […] The following day, the cell media was refreshed after PBS washing and maintained in 2.5% DMSO containing media. On the 9th day post-infection, the cellular lysates were prepared and subjected to SDS-PAGE and immunoblotting, core particle immunoblotting, and Southern blot analysis. At 5 days post-infection, HBV RNA levels were determined by Northern blotting.
Juglone (Sigma Aldrich, AG17724), PiB (Calbiochem, CAS 64005–90-9), ATRA (Sigma-Aldrich, R2625), 6,7,4′-THIF (Chem Faces, CFN90796), KPT6566 (ProbeChem, PC-61182), or EGCG (Sigma Aldrich, 989–51-5) was treated to Huh7, HepAD38, HepG2, HepG2.2.15, and HepG2-hNTCP-C9 cells. Prior to the conduct of experiments, the cytotoxic effects of Juglone, PiB, ATRA, 6,7,4′-THIF, KPT6566, or EGCG were examined via MTT assay (3-[4,5-dimethylththiazol-2-yl]-2,5-diphenyltetrazolium bromide), as described previously ([Bichko et al., 1985]; [Piracha et al., 2018], [2020]; [Saeed et al., 2019], [2021]). Briefly, selected HCC cell lines (HepG2, Huh7, HepG2.2.15, and HepAD38) in 6 cm plates were treated with Juglone (20 μM), PiB (20 μM), ATRA (30 μM), 6,7,4′-THIF (30 μM), KPT6566 (30 μM), or EGCG (40 μM) at transfection or at the time of TC removal from HepAD38 cells. Juglone (20 μM in ethanol, Sigma Aldrich, AG17724) was treated to 1.3 mer HBV-WT transfected Huh7 cells (Figure 3A) or TC-depleted HepAD38 cells (Figure 3B) or to 1.3 mer HBV-WT transfected HepG2 (Figure 3C) or HepG2.2.15 (Figure 3D) cells for 72 h. PiB (20 μM in DMSO, Calbiochem, CAS 64005-90-9) was treated for 72 h to 1.3 mer HBV-WT transfected Huh7 cells (Figure 4A) or TC-depleted HepAD38 cells (Figure 4B) or to 1.3 mer HBV-WT transfected HepG2 cells (Figure 4C) or HepG2.2.15 (Figure 4D) cells. To examine the effects on HBV replication, ATRA (30 μM in DMSO, R2625 Sigma-Aldrich) was treated for 72 h to 1.3 mer HBV-WT transfected Huh7 cells (Figure 5A) or TC-depleted HepAD38 cells (Figure 5) or to 1.3 mer HBV-WT transfected HepG2 cells (Figure 5C) or HBV replicating HepG2.2.15 (Figure 5D) cells. 6,7,4′-THIF (30 μM in DMSO, CFN90796 Chem Faces) was treated for 72 h to 1.3 mer HBV-WT transfected Huh7 cells (Figure 6A) or TC-depleted HepAD38 cells (Figure 6B) or to 1.3 mer HBV-WT transfected HepG2 cells (Figure 6C) or HBV replicating HepG2.2.15 (Figure 6D) cells. KPT-6566 (30 μM in DMSO, PC-61182 ProbeChem) was treated for 72 h to 1.3 mer HBV-WT transfected Huh7 cells (Figure 7A) or TC-depleted HepAD38 cells (Figure 7B) or to 1.3 mer HBV-WT transfected HepG2 cells (Figure 7C) or HBV replicating HepG2.2.15 (Figure 7D) cells. […]

[2] = biological target: PIN4 (Homo sapiens, UniProt Q9Y237); assay: PIN4 expression by immunoblotting in HCC cells; type: cell-based; conditions: 30 μM ATRA, 72 h
[3] = biological target: T1, PIN1 (Homo sapiens, UniProt Q13526); assay: PIN1 expression by immunoblotting in HCC cells; type: cell-based; conditions: 30 μM ATRA, 72 h
T1 construct: Since the endogenous PIN1 and PIN4 levels remained higher in HBV replicating and non-replicating HCC-derived cell lines; endogenous in cells; host or cells: Huh7, HepAD38, HepG2, HepG2.2.15 (human HCC cell lines)
T1 sequence (Q13526 whole entry): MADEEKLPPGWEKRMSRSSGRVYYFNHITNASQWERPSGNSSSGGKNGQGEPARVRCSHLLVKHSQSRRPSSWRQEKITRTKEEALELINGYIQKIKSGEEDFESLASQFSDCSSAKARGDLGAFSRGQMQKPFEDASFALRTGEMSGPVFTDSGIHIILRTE

Chain of PIN4 (Q9Y237 whole entry): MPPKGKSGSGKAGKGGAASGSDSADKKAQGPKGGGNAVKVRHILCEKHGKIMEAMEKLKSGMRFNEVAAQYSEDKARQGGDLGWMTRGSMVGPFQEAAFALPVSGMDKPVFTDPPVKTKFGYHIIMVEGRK

SMILES | HBV replication in infected cells (HBc, HBV transcripts, core particles, HBV DNA) [1] | expression level of PIN4 [2] | expression level of PIN1 [3]
CC(C)(C)c1ccc(S(=O)(=O)N=C2C=C(SCC(=O)O)C(=O)c3ccccc32)cc1 [KPT6566, 2-[[4-[[[4-(1,1-dimethylethyl)phenyl]sulfonyl]imino]-1,4-dihydro-1-oxo-2-naphthalenyl]thio] acetic acid] | restricted HBV replication | – | –
O=c1c(-c2ccc(O)cc2)coc2cc(O)c(O)cc12 [6,7,4′-THIF, 6,7-dihydroxy-3-(4-hydroxyphenyl)-4H-chromen-4-one] | restricted HBV replication | – | –
CCOC(=O)CN1C(=O)c2ccc3c4c(ccc(c24)C1=O)C(=O)N(CC(=O)OCC)C3=O [PiB, 1,3,6,8-tetrahydro-1,3,6,8-tetraoxo-benzo [lmn][3,8] phenanthroline-2,7-diacetic acid, 2,7-diethyl ester] | restricted HBV replication | – | –
CC1=C(/C=C/C(C)=C/C=C/C(C)=C/C(=O)O)C(C)(C)CCC1 [ATRA, All-trans-retinoic acid] | restricted HBV replication | reduced | reduced
O=C(O[C@@H]1Cc2c(O)cc(O)cc2O[C@@H]1c1cc(O)c(O)c(O)c1)c1cc(O)c(O)c(O)c1 [EGCG, Epigallocatechin gallate] | restricted HBV replication | – | –
O=C1C=CC(=O)c2c(O)cccc21 [Juglone, 5-hydroxyl-1,4-naphthoquinone] | restricted HBV replication | – | –
